Reference: patent US20020132823A1, “Assay method” (priority 2001, published 2002)

Tests used:
[1] = test system: TNFα release from human peripheral blood mononuclear cells; assay: TNFα release from human PBMCs (LPS/γ-interferon stimulated, ELISA); format: cell-based; settings: PBMC, LPS 5 μg/ml + γ-interferon 100 U/ml, 3 hours
Experimental: (§1) 2. TNFα and IL-1 Release from Human PBMCs
(§2) Cell Separation and Culture
(§3) All cell culture and ELISA work was done on 96 well plates (Costar). Mononuclear cells were prepared from the blood of healthy volunteers using ficoll-hypaque density separation according to the method of Hansel et al (Hansel TT et al. (1991) An improved immunomagnetic procedure for the isolation of highly purified human blood eosinophils. J. Imm. Methods 145, 105-110) and used at a concentration of 100,000 cells/well in RPMI 1640, 5% FCS (Gibco). Serial dilution of the test compound were made in DMSO and diluted with culture medium. Final DMSO concentration in the culture medium was 0.1%. […]
For ELISA determination, supernatants were diluted 1:1 and added into a plate coated with the anti humanTNF monoclonal antibody (357-101-4, clone 92030603 from European Collection of Animal Cell Cultures, antibody produced and purified within Novartis Pharma, 1 μg/ml in PBS) After overnight incubation, the plates were washed (4×) and biotinylated anti humanTNF monoclonal antibody 2-179-E11 (clone 92030602 (European Collection of Animal Cell Cultures), produced and purified in Novartis Pharma) was added to a final concentration of 1 μg/ml (100 μl/well). […] Color formation was monitored in a Bio-Tec ELx 808 plate reader at 405 nm in the kinetic mode for 30 minutes. […]

[2] = Cytotoxicity in THP-1 cells (MTT); format: cell-based; settings: human, THP-1 cells stimulated with LPS/IFNγ, LPS/IFN stimulated
Experimental: THP-1 cells are obtained from ATCC and stored in liquid nitrogen. Medium for growth of THP-1 cells: RPMI 1640(GIBCO)+10% fetal bovine serum (GIBCO)+L-glutamine (2 mM)+penicillin/streptomycin (100 U/ml) +β-mercaptoethanol (0.05 mM). Cell culture medium for THP-1 incubation: RPMI 1640(GIBCO)+5% fetal bovine serum (GIBCO)+L-glutamine (2 mM)+penicillin/streptomycin (100 U/ml)+β-mercaptoethanol (0.05 mM).
The solution for stimulation is prepared by mixing equal volumes of IFNγ (Boehringer Mannheim, 2000 U/ml) and LPS (Sigma, L8274, 100 μg/ml). The dye solution is prepared from 500 mg MTT (Sigma, M2128) in 100 ml phosphate buffered saline (PBS) and kept under sterile conditions at 4° C. Sodium dodecyl sulfate (SDS) solution (10%) is made from 50 g SDS (Bioprobe Systems) and 5 ml 1N HCl. The solution is made up to 500 ml with distilled water and kept at room temperature (precipitates in the fridge). All incubations are done at 37° C. in 5% CO2. […]
The absorbance at 540 nm is read with a microplate reader (Biotec 808 Elx). […]
Calculation of cytotoxicity: The absorbance corresponding to 100% cytotoxicity equals the absorbance of wells without cells (no MTT converted into the blue dye). The absorbance corresponding to no cytotoxicity is taken from wells without substance, but with control solvent. Percent cytotoxicity is calculated for each substance concentration.

Recombinant human Prak = molecular target: T1, Recombinant human Prak (Homo sapiens, UniProt Q8IW41); assay: In vitro kinase assay Prak (HSP27 phosphorylation, 33P-ATP); format: biochemical; settings: activated recombinant human Prak, His-HSP27 substrate, 1 h at room temperature
T1 construct: His6; made in house; host or cells: E. coli
T1 sequence (Q8IW41 1-471 isoform Q8IW41-2): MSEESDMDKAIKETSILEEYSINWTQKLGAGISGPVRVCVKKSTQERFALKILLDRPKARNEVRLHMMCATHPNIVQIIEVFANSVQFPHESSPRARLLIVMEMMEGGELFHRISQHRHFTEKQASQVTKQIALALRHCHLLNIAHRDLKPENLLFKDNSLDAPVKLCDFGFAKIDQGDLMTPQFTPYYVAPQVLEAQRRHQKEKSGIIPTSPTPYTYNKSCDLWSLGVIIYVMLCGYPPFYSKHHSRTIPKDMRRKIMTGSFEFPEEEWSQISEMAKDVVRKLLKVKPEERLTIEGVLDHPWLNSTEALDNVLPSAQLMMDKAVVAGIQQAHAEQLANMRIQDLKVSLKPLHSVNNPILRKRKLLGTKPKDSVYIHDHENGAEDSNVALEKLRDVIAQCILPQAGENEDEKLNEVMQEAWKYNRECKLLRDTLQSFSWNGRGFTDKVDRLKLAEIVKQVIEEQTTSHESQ
Experimental: Recombinant human Prak was expressed in E. coli as His6-tagged protein substantially as described for Mnk1 by Tschopp et al. (Tschopp et al. (2000) Phoshorylation of eIF-4E on Ser 209 in response to mitogenic and inflammatory stimuli is faithfully detected by specific antibodies. Molecular Cell Biology Res. Comm. 3, 205-211). Phospho-p38a and His6-Hsp27 was prepared substantially as described (New et al. and Tschopp et al. ibid). All kinase reactions were performed with the following reaction buffer. Kinase buffer (5×): 125 mM Hepes (Stock at 1M; Gibco #15630-056), 125 mM β-glycerophosphate (Sigma #G-6251):125 mM MgCl2 (Merck #5833); 0.5 mM Sodium orthovanadate (Sigma #5-6508), 10 mM DTT (Boehringer Mannheim #708992), pH 7.4. The (5×) kinase buffer is freshly prepared from 25× stock solution. DTT is stored frozen at −20° C. in small aliquots and added immediately before use.
Prior to the assay, recombinant Prak is phosphorylated by incubation with phospho-p38. […]
The assay is stopped after one hour of incubation at room temperature by the addition of 5 μl EDTA 0.5M. […] After washing and drying the membrane, incorporated label is quantified by liquid scintillation counting.

[3] = test system: IL-1β release from human peripheral blood mononuclear cells; assay: IL-1β release from human PBMCs (LPS/γ-interferon stimulated, ELISA); format: cell-based; settings: PBMC, LPS 5 μg/ml + γ-interferon 100 U/ml, 4.5 hours
Experimental: as §1, §2
as §3, with “0.1%. Compound were preincubated with the cells for 30 minutes at 37° C., 5% CO2. Then, the cells were stimulated with LPS (5 μg/ml, Sigma) and γ-interferon (100 U/ml, Boehringer Mannheim) and cultured for 3 hours (for TNFα-determination) or 4.5 hours (for Il-1 β and Il-6 determination).” for “0.1%.”
ELISA microtiter plates were coated with a murine anti-human IL-1^2 MAb (Human IL-1^2 Cytoset (Biosource International Inc., #CHC1214), 100 μl at 1 μg/ml) in PBS 0.02% NaN3 and incubated overnight at +4° C., The following day, microtiter plates were washed 4 times with PBS/0.05% Tween/0.02% NaN3 and blocked with 300 μl of PBS/2% bovine serum albumin (BSA)/0.02% NaN3 for 3 h. […] Plates were read in a microtiter reader (Bio-Rad) using filters of 405 and 490 nm.

[4] = test system: IL-6 production in human dermal fibroblasts; assay: IL-6 production in human dermal fibroblasts (IL-1β stimulated, ELISA); format: cell-based; settings: Fibroblast, 1 μM compound, IL-1β 100 pg/ml, 16-17 h
Experimental: 4. IL-6 Production in Human Dermal Fibroblasts
Human dermal foreskin fibroblasts were obtained from Clonetics (CC-2509) and grown in FBM (Clonetics, CC-3131 ) including bFGF (1 ng/ml, CC-4065), insulin (5 μg/ml, CC-4021), and 2% FCS (CC-4101).
For induction of IL-6, cells were seeded at a density of 10^4 cells per well in a 48 well tissue cluster. The following day, cells were starved for 6-7 h in FBM containing 2% FCS. Compounds were added at final concentrations of 10 and 1 μM 30 min prior to stimulation with recombinant human IL-1β (100 pg/ml).
Cell supernatant was taken 16-17 h after stimulation and the amount of released IL-6 determined in a sandwich ELISA.
ELISA microtiter plates were coated with a murine anti-human IL-6 MAb (314-14 (Novartis Pharma; batch EN23,961, 5.5 mg/ml); 100 μl at 3 μg/ml) in PBS 0.02% NaN3 and incubated overnight at +4° C., The following day, microtiter plates were washed 4 times with PBS/0.05% Tween/0.02% NaN3 and blocked with 300 μl of PBS/3% bovine serum albumin (BSA)/0.02% NaN3 for 3 h. […] Plates were read in a microtiter reader (Bio-Rad) using filters of 405 and 490 nm. IL-6 levels in culture supernatants were calculated in reference to the standard curve using the cubic curve fit. Percentage inhibitions and IC50 values were calculated

Question: Which results are given for `O=S(=O)(c1ccc(Nc2nccc(N3CCCc4c(O)cccc43)n2)cc1)N1CCCCC1` [Compound A]?
Answer: IC50 [1]: 2200 nM; IC50 at 24 h [2]: > 30 µM; IC50 (Recombinant human Prak): 1100 nM; IC50 [3]: 1100 nM; inhibition at 1 µM [4]: 100%
